From article PMC10814725, “In Vitro Anti-Inflammatory Study of Limonoids Isolated from Chisocheton Plants” (Current Issues in Molecular Biology, 2024)
Like-named read-outs stand apart in the source and are kept apart here.

Columns and labels:
TNF-α = assay: ELISA of TNF-α production in LPS-stimulated THP-1 cells; type: cell-based, human; settings: for IC50: Homo sapiens, THP-1, 18 h, read-out: TNF-α IC50; for TNF-α SI (selectivity index, CC50/IC50): THP-1 CC50 / TNF-α IC50
IL-6 = assay: ELISA of IL-6 production in LPS-stimulated THP-1 cells; type: cell-based, human; settings: for IC50: Homo sapiens, THP-1, 18 h, LPS-stimulated (10 ng/mL) THP-1 cells, 1, 5, 10, 20 µM, 18 h; for IL-6 SI (selectivity index, CC50/IC50): THP-1 CC50 / IL-6 IC50
Protocol: The logarithmic growth phase of THP-1 cells was achieved by seeding in 96-well plates at a density of 5 × 10^4 cells/well and differentiated for 24 h in the presence of PMA (0.5 μM solution in medium). After 24 h of incubation, the culture medium was removed from the 96-well plate and the cells were washed with PBS. […] The cells were pretreated with 17 limonoids at the corresponding concentration for 1 h, followed by the addition of LPS (10 ng/mL) and then incubation at 37 °C for 18 h. Finally, 50 μL of each culture supernatant solution was taken to determine the concentrations of IL-6, MCP-1, and IL-1β using the corresponding commercially available human ELISA kits following the manufacturer’s instructions. The analyte concentration in the supernatant was measured in pg/mL, and the inhibition level was expressed as a fold change compared to the LPS (−) control group. To determine the IC50 value, the dose-response data were normalized to the LPS-stimulated-only group, and the percentage of inhibition was calculated using the following formula: % Inhibition=(Absorbance of LPS+ control−Absorbance of compound treatment with LPS)/(Absorbance of LPS+ control−Absorbance of LPS− control)×100
(§1) Furthermore, the % inhibition data were interpolated into linear equations to determine the IC50 values.

[1] = Cell viability by CCK-8, HEK-Blue hTLR4 cells; type: cell-based; settings: human
Protocol: (§2) The viability of HEK-Blue^TM hTLR4, […], and THP-1 cells was evaluated using the Dojindo Cell Counting Kit-8 (CCK-8) according to the manufacturer’s instructions. The viability of HEK-Blue^TM hTLR4 and THP-1 cells was assessed under identical conditions to the corresponding assay treatments. HEK-Blue^TM hTLR4 cells (2 × 10^4 cells/well) were seeded in 96-well plates and serum-starved for 24 h at 37 °C in a 5% CO2 atmosphere. After incubation, the culture medium was aspirated, and the cells were washed with saline. High-glucose D-MEM supplemented with 0.1% FBS and 1% penicillin–streptomycin was added and pretreated with or without the 17 limonoids at a concentration of 20 µM for 1 h, followed by LPS addition at a concentration of 10 ng/mL. After 18 h of incubation, a 10% (v/v) CCK-8 solution was added to each well and incubated at 37 °C for 1 h, and cell viability was calculated.

[2] = Cell viability by CCK-8, THP-1 cells; type: cell-based; settings: human, PMA-differentiated THP-1 cells; for CC50 at 18 h: concentration causing 50% cytotoxicity against THP-1 cells
Protocol: as §2
The THP-1 cells at 5 × 10^4 cells/well were differentiated for 24 h in the presence of PMA (0.5 μM solution in medium). After 24 h of incubation, the culture medium was removed from the 96-well plate and the cells were washed with PBS. Fresh RPMI-1640 medium supplemented with 0.1% FBS and 1% penicillin–streptomycin was added to each well and incubated at 37 °C for overnight. The cells were pretreated with 17 limonoids at the corresponding concentration for 1 h followed by the addition of LPS (10 ng/mL) and incubated at 37 °C for 18 h. Furthermore, CCK-8 solution was added to each well with a final concentration was 10% (v/v) and incubated at 37 °C. After 1 h, the absorbance of each well was measured at […] by using a microplate reader (BioTek Cytation 5 Cell Imaging Multimode Reader). Cell viability was calculated using the following formula: % Cell viability=(Absorbance of sample−Absorbance of Background)/(Absorbance of control−Absorbance of Background)×100 where the absorbance of the sample is the absorbance of cells treated by the compound with or without LPS, the absorbance of the control is the absorbance of LPS (−)-treated cells, and the background absorbance is the absorbance of a well containing only the medium. The results were expressed as 100% cell viability.

phosphorylated-p38 MAPK = assay: Western blotting of phosphorylated-p38 MAPK in LPS-stimulated THP-1 cells; type: cell-based, human; settings: 10 µM, LPS 10 ng/mL, 18 h, compared to LPS (+) group
Protocol: THP-1 cells were seeded at a density of 1 × 10^6 cells/well in 24-well plates. The cells were then pretreated with a concentration of 10 µM of compounds 3, 5, 9, or 15 for 1 h. Subsequently, LPS (10 ng/mL) was added to the cells, which were incubated for 18 h. The protein concentrations were determined using a bicinchoninic acid (BCA) assay kit.
For Western blot analysis, proteins were separated by SDS-PAGE and transferred onto a polyvinylidene fluoride (PVDF) membrane. The membranes were blocked with 2.5% BSA in Tris-buffered saline-Tween (TBST) for 1 h at room temperature. After three washes with TBST, the membranes were incubated with a diluted primary antibody solution (anti-phosphorylated-p38 MAPK or anti-p38 MAPK) at a 1:1000 dilution for 1 h at room temperature. After three washes with TBS-T, the membranes were incubated with a secondary antibody conjugated to horseradish peroxidase (HRP; 1:4000 dilution) for 30 min at room temperature and subsequently detected by chemiluminescence. Finally, the bands were visualized and quantified using an ImageQuant 800 GxP system (Cytiva, MA, USA). The results were expressed as ratios relative to the reference protein β-actin.

in vitro = type: cell-based; settings: mouse
Protocol: as §2

[3] = tested on: TNF-α, IL-6, IL-1β, and MCP-1; assay: ELISA of pro-inflammatory markers overall (TNF-α, IL-6, IL-1β, MCP-1) in LPS-stimulated THP-1 cells; type: cell-based; settings: Homo sapiens, read-out: Overall IC50 values for the evaluated pro-inflammatory markers
Protocol: The logarithmic growth phase of THP-1 cells was achieved by seeding in 96-well plates at a density of 5 × 10^4 cells/well and differentiated for 24 h in the presence of PMA (0.5 μM solution in medium). After 24 h of incubation, the culture medium was removed from the 96-well plate and the cells were washed with PBS. Fresh RPMI-1640 medium supplemented with 0.1% FBS and 1% Penicillin–Streptomycin was added to each well and incubated at 37 °C overnight. The cells were pretreated with 17 limonoids at the corresponding concentration for 1 h, followed by the addition of LPS (10 ng/mL) and then incubation at 37 °C for 18 h. Finally, 50 μL of each culture supernatant solution was taken to determine the concentrations of IL-6, MCP-1, and IL-1β using the corresponding commercially available human ELISA kits following the manufacturer’s instructions. The analyte concentration in the supernatant was measured in pg/mL, and the inhibition level was expressed as a fold change compared to the LPS (−) control group. To determine the IC50 value, the dose-response data were normalized to the LPS-stimulated-only group, and the percentage of inhibition was calculated using the following formula: % Inhibition=(Absorbance of LPS+ control−Absorbance of compound treatment with LPS)/(Absorbance of LPS+ control−Absorbance of LPS− control)×100
as §1

[4] = tested on: TLR4-dependent NF-kB activation in HEK-Blue hTLR4 cells; assay: SEAP reporter gene assay, antagonist effect on LPS-stimulated TLR4-dependent NF-κB activation; type: cell-based, human; settings: 20 µM, LPS 10 ng/mL, 18 h, vs. LPS stimulated-only group
Protocol: The SEAP Reporter Gene Assay was conducted as previously described. HEK-Blue^TM hTLR4 cells (2 × 10^4 cells/well) were seeded in 96-well plates and were serum-starved for 24 h at 37 °C in a 5% carbon dioxide atmosphere. After incubation, the culture medium was aspirated, and the cells were washed with saline. High-glucose D-MEM supplemented with 0.1% FBS and 1% penicillin-streptomycin was added and treated with or without the 17 limonoids at a concentration of 20 µM for 1 h, followed by LPS addition at a concentration of 10 ng/mL for the LPS-stimulated group. After incubation at 37 °C for 18 h, the supernatants were collected and PNPP in PBS solution (0.8 mM, 100 μL) was added, followed by 4 h of shading at 25 °C. The optical density (OD) of the samples was measured at 405 nm using a microplate reader (BioTek Cytation 5 Cell Imaging Multimode Reader, Agilent Technologies, Santa Clara, CA, USA).

[5] = LPS-stimulated (10 ng/mL) THP-1 cells, 1, 5, 10, 20 µM, 18 h
[6] = Viability Cell (%) HEK-Blue hTLR4 LPS-Induced (10 ng/mL)
[7] = Viability Cell (%) HEK-Blue hTLR4 Without LPS
[8] = LPS 10 ng/mL, read-out: Viability Cell (%) THP-1 LPS-Induced (10 ng/mL)
[9] = without LPS, read-out: Viability Cell (%) THP-1 Without LPS

Compound | IC50 (TNF-α; [5]) [µM] | TNF-α SI (selectivity index, CC50/IC50) (TNF-α) | IC50 (IL-6) [µM] | viability at 18 h, 20 µM [1, 6] [%] | viability at 18 h, 20 µM [1, 7] [%] | viability at 18 h, 10 µM [2, 8] [%] | viability at 18 h, 10 µM [2, 9] [%] | CC50 at 18 h [2] [µM] | Effect on p-p38 MAPK levels (phosphorylated-p38 MAPK) | viability at 5 µM (in vitro) [%] | viability at 10 µM (in vitro) [%] | viability at 20 µM (in vitro) [%] | IC50 [3] [µM] | Inhibition of SEAP release (NF-κB activity inhibition) [4] | IC50 (TNF-α) [µM] | IL-6 SI (selectivity index, CC50/IC50) (IL-6)
CC(=O)O[C@H]1[C@@H](OC(C)=O)[C@]2(C)[C@H](CC[C@@]3(C)[C@H](c4ccoc4)C[C@H]4O[C@@]423)[C@@]2(C)C=CC(=O)C(C)(C)[C@H]12 [Compound 4, 6α-(acetoxy)-14β,15β-epoxyazadirone] | 5.6 | 6.78 | 1.64 | > 99.9 | > 99.9 | > 99.9 | > 99.9 | 38 | significantly suppressed | 85 ± 5.66 | 85.9 ± 5.34 | 82.4 ± 1.15 | < 20 |  |  | 
CC(=O)O[C@@H]1C[C@H]2C(C)(C)C(=O)C=C[C@]2(C)[C@H]2CC[C@@]3(C)[C@H](c4ccoc4)C[C@H]4O[C@]43[C@@]21C [Compound 13, trichilenone acetate] |  |  |  | > 99.9 | 92.4 ± 10.6 | > 99.9 | 90.8 ± 3.23 |  |  | > 99.9 | > 99.9 | 91.9 ± 4.37 |  | significantly inhibited SEAP release |  | 
CC(=O)O[C@@H]1C[C@]2(C)C(=CC[C@H]2c2ccoc2)[C@@]2(C)[C@H]1[C@@]1(C)C=CC(=O)C(C)(C)[C@@H]1C[C@H]2OC(C)=O [Compound 11, 11α-acetoxyazadirone] |  |  |  | 9.84 ± 7.34 | 52.6 ± 4.74 | > 99.9 | > 99.9 |  |  | 90.1 ± 7.88 | 79 ± 1.58 | 78.9 ± 2.21 |  | significantly inhibited SEAP release |  | 
C[C@]12C3=CC[C@@H](c4ccoc4)[C@]3(C)CC[C@@H]1[C@@]1(C)C(=O)C=C[C@@]3(C)CO[C@@H]([C@H]2O)[C@H]13 [Compound 12, ceramicine B] |  | 2.66 |  | > 99.9 | > 99.9 | 96.7 ± 4.3 | > 99.9 | 36.9 | significantly suppressed | > 99.9 | > 99.9 | 89.4 ± 6.9 |  |  | 13.9 | 
CC1(C)C(=O)C=C[C@]2(C)[C@H]3CC[C@]4(C)C(=CC[C@H]4C4CCOC4=O)[C@]3(C)[C@H](O)C[C@@H]12 (stereo partly drawn) [Compound 16, pentandricine C] |  |  | 5.69 | > 99.9 | > 99.9 | > 99.9 | 90.4 ± 7.6 | 110 | significantly suppressed | 91.8 ± 3.18 | 81.3 ± 7.05 | 89.4 ± 7.08 | < 20 |  |  | 19.40
CC(=O)O[C@@H]1C[C@H]2C(C)(C)C(=O)C=C[C@]2(C)[C@H]2CC[C@]3(C)C(=CC[C@H]3C3CCOC3=O)[C@@]21C (stereo partly drawn) [Compound 15, pentandricine B] | 16.4 | 5.88 | 7.37 | 84.4 ± 18.7 | > 99.9 | > 99.9 | > 99.9 | 96.6 | significantly suppressed | 92.8 ± 1.79 | 91.9 ± 3.59 | 90.9 ± 4.95 | < 20 |  |  | 13.11
